Data as given in patent US5468756A, “Imidazonaphthyridine derivatives” (Kyowa Hakko Kogyo Co., Ltd., priority 1990, dated 1995).

What was measured:
[1] = tested on: carrageenin-induced paw edema; assay: Effect on carrageenin-induced paw edema; type: in vivo, male Wistar rats; conditions: Rattus norvegicus, 3 hours after carrageenin, read-out: Suppression rate for paw swelling, carrageenin-induced edema; for inhibition in vivo at 100 mg/kg: p.o.; for inhibition in vivo at 50 mg/kg: po, 50 mg/kg P.O.
Protocol: a) Effect on carrageenin-induced paw edema
(§1) Male Wistar rats weighing 150 to 160 g (n=3-5) were used in the experiment. After the right hind paw volume was measured with the plethysmograph (TK-101; Unicom Co., Ltd.), the test compound (25, 50 or 100 mg/kg) was orally administered. After one hour, 0.1 ml of 1% carrageenin (λ-carrageenin; PICNIN-A®, Zushi Kagaku Co., Ltd.) was subcutaneously injected into the right hind paw footpad. Three hours after the injection of carrageenin, the right hind paw volume was measured and the swelling rate was determined by the following equation 1. [formula] Vt: the right hind paw volume measured 3 hours after the injection of carrageenin
(§2) Vo: the right hind paw volume measured prior to the injection of carrageenin
(§3) The suppression rate was calculated by the following equation 2. [formula] Swt: the swelling rate of the group administered with the test compound Swc: the swelling rate of the control group administered with physiological saline solution

[2] = tested on: zymosan-induced paw edema; assay: Effect on zymosan-induced paw edema; type: in vivo, male Wistar rats; conditions: Rattus norvegicus, po, read-out: Suppression rate for paw swelling, zymosan-induced edema; for inhibition in vivo at 25 mg/kg: 25 mg/kg P.O.
Protocol: as §1, §2, §3
b) Effect on zymosan-induced paw edema
The experiment was carried out in the same manner as in the carrageenin-induced paw edema test except that 1% zymosan (Zymosan A®; Sigma Chemical Co.) was used in place of 1% carrageenin and the right hind paw volume was measured […] the injection of the edema-inducing substance instead of 3 hours. The swelling rate and the suppression rate were calculated by equation 1 and equation 2, respectively.

[3] = tested on: Type III allergic reaction-induced pleurisy; assay: Effect on Type III allergic reaction-induced pleurisy; type: in vivo, male Wistar rats; conditions: 100 mg/kg orally; rats; 4.5 h after induction of pleurisy
Protocol: c) Effect on Type III allergic reaction-induced pleurisy
1. Preparation of IgG fraction of rabbit anti-egg white albumin (anti-OA)
IgG was purified from rabbit anti-OA serum prepared in advance by the method of Koda et al. [Folia Pharmacol., Japon 66, 237, (1970)] in the following manner.
A saturated solution of ammonium sulfate (half volume of the serum) was added to the anti-OA serum, and the mixture was left for one hour at 4° C. The precipitate was taken by centrifugation (3,000 rpm, 30 min. 4° C.) and dissolved in phosphate buffer of Dulbecco. Then, ammonium sulfate fractionation was carried out three times in the same manner as above, whereby a purified IgG fraction was obtained.
2. Type III allergic reaction-induced pleurisy
Male Wistar rats weighing 225-250 g were pre-bred for several days and fasted overnight prior to the experiment. The test compound (100 mg/kg) was orally administered to the animals, and after 30 minutes, a solution of IgC of rabbit anti-OA (0.2 ml, 5 mg protein/ml) was injected into the pleural cavity of the animals from the right side of thorax under anesthesia with ether. Thirty minutes after the injection of IgG, OA (albumin egg grade III; Sigma Chemical Co.) was intravenously injected into the animals as an inducer of pleurisy. After two hours, Evans Blue (25 mg/kg) was intravenously injected, and four and a half hours after the induction of pleurisy, the animals were killed by bleeding.
Then, an exudate in the pleural cavity was obtained, and the volume of the exudate was measured. The pleural cavity was rinsed with 5 ml of physiological saline and the rinsings were added to the exudate. The number of infiltrated cells in the mixture was counted and the volume of the dye in the mixture was determined by the absorption at 625 nm [Agent Actions., 25, 326 (1988)]. The suppression rates for the volume of the exudate, the number of infiltrated cells and the volume of the dye in the pleural cavity were calculated by the following equation 3. [formula] […]

[4] = tested on: passive Schultz-Dale reaction; assay: Effect on passive Schultz-Dale reaction (broncho-dilative activity), sensitized tracheal strips contracted by antigen; parameters: species or system male Hartley guinea pigs; conditions: guinea pig tracheal zig-zag strips, 37° C., antigen egg white albumin 1 μg/ml; read-out: Passive Schultz-Dale reaction IC50 (concentration of 50% relaxation rate)
Protocol: d) Effect on passive Schultz-Dale reaction (broncho-dilative activity)
Male Hartley guinea pigs weighing 350 to 500 g were passively sensitized by intraperitoneal injection of rabbit anti-OA serum prepared in advance by the method of Koda et al. [Folia Pharmacol., Japon 66, 237, (1970)]. After 24 hours, the guinea pigs were stunned and exsanguinated, and then tracheae were removed. The zig-zag strips of the tracheae were prepared by the method of Emmerson and Mackay [J. Pharm. Pharmacol., 31, 798, (1979)]. The strips were suspended in Krebs-Henseleit solution at 37° C. under aeration of a mixed gas of 95% oxygen and 5% carbon dioxide, and equilibrated for one hour. Then, antigen (egg white albumin) was introduced in the solution (final concentration; 1 μg/ml), and the contraction was measured by isotonictransducer (TD-112s, made by Nihon Kohden K.K., Japan) and recorded on a recorder (Type 3066, made by Yokogawa-Hokushin Denki, K.K. Japan). After the contraction curves reached a plateau, the test compounds were successively added in order to get cumulative concentration-relaxation curves. The concentration of 50% relaxation rate (IC50) was calculated from the regression line, which was obtained from the cumulative concentration-relaxation curves.

[5] = tested on: platelet activating factor (PAF)-induced mortality; assay: Inhibition effect on platelet activating factor (PAF)-induced mortality; type: in vivo, male dd mice; conditions: Mus musculus, po, PAF 40 μg/kg i.v., 3 h, n = 10, control group survival 0-20%, read-out: Survival rate of test compound-administered group
Protocol: e) Inhibition effect on platelet activating factor (PAF)-induced mortality
The experiment was carried out by a minor modification of a known method [Br. J. Pharmacol., 79, 595 (1983)]. Groups each consisting of 10 male dd mice (weighing 28 to 32 g) were used, and 50 or 100 mg/kg of the test compound or a saline (control) was orally administered. One hour after the administration of test compound, 40 μg/kg of PAF (manufactured by Avanti Polar Lipids Co., Ltd.) was intravenously administered. Three hours after PAF injection, the mortality of the animals was observed.

ddY strain male mice = assay: Acute toxicity (Minimum Lethal Dose); type: in vivo
Protocol: The test compound was orally and intraperitoneally administered to ddY strain male mice weighing 20 to 25 g. MLD (Minimum Lethal Dose) was determined by observing the mortality for […] after the administration.

CCCCn1c(=O)c2ncn(C)c2c2cccnc21 [Compound 1, 5-(n-Butyl)-1-methyl-1H-imidazo[4,5-c][1,8]naphthyridin-4(5H)-one]
inhibition in vivo at 100 mg/kg [1]: 40.1%
inhibition in vivo at 100 mg/kg [2]: 38.8%
Suppression rate, number of infiltrated cells in the exudate [3]: 84.1%
Suppression rate, volume of dye in the exudate [3]: 80.3%
Suppression rate, volume of exudate [3]: 100%
IC50 [4]: 12 µM
responders at 100 mg/kg [5]: 90%

CCn1cnc2c3cccnc3n(-c3ccccc3)c(=O)c21 [Compound 8, 3-Ethyl-5-phenyl-3H-imidazo[4,5-c][1,8]naphthyridin-4(5H)-one]
inhibition in vivo at 100 mg/kg [1]: 56.1%
inhibition in vivo at 100 mg/kg [2]: 64.9%
IC50 [4]: 0.45 µM
responders at 100 mg/kg [5]: 70%
MLD (Minimum Lethal Dose) i.p. (ddY strain male mice): > 50 mg/kg
MLD (Minimum Lethal Dose) p.o. (ddY strain male mice): > 50 mg/kg

CCCn1cnc2c3cccnc3n(-c3ccccc3)c(=O)c21 [Compound 9, 5-Phenyl-3-n-propyl-3H-imidazo[4,5-c][1,8]naphthyridin-4(5H)-one]
inhibition in vivo at 100 mg/kg [1]: 52.4%
inhibition in vivo at 25 mg/kg [2]: 61.2%
IC50 [4]: 6.5 µM
responders at 100 mg/kg [5]: 100%
MLD (Minimum Lethal Dose) i.p. (ddY strain male mice): > 100 mg/kg
MLD (Minimum Lethal Dose) p.o. (ddY strain male mice): > 100 mg/kg

CC(C)n1cnc2c3cccnc3n(-c3ccccc3)c(=O)c21 [Compound 10, 3-Isopropyl-5-phenyl-3H-imidazo[4,5-c][1,8]naphthyridin-4(5H)-one]
inhibition in vivo at 100 mg/kg [1]: 43.1%
inhibition in vivo at 100 mg/kg [2]: 53%
IC50 [4]: 6 µM
responders at 100 mg/kg [5]: 80%
MLD (Minimum Lethal Dose) i.p. (ddY strain male mice): > 100 mg/kg
MLD (Minimum Lethal Dose) p.o. (ddY strain male mice): > 100 mg/kg

CCCCn1cnc2c3cccnc3n(-c3ccccc3)c(=O)c21 [Compound 11, 3-n-Butyl-5-phenyl-3H-imidazo[4,5-c][1,8]naphthyridin-4(5H)-one]
inhibition in vivo at 100 mg/kg [1]: 56.4%
inhibition in vivo at 25 mg/kg [2]: 55.5%
IC50 [4]: > 10 µM
responders at 100 mg/kg [5]: 100%
MLD (Minimum Lethal Dose) i.p. (ddY strain male mice): > 100 mg/kg
MLD (Minimum Lethal Dose) p.o. (ddY strain male mice): > 200 mg/kg

CC(C)Cn1cnc2c3cccnc3n(-c3ccccc3)c(=O)c21 [Compound 12, 3-Isobutyl-5-phenyl-3H-imidazo[4,5-c][1,8]naphthyridin-4(5H)-one]
inhibition in vivo at 100 mg/kg [1]: 48.5%
inhibition in vivo at 25 mg/kg [2]: 69.7%
IC50 [4]: 8.5 µM
responders at 100 mg/kg [5]: 100%
MLD (Minimum Lethal Dose) i.p. (ddY strain male mice): > 50 mg/kg
MLD (Minimum Lethal Dose) p.o. (ddY strain male mice): > 200 mg/kg

O=c1c2c(ncn2Cc2ccccc2)c2cccnc2n1-c1ccccc1 [Compound 13, 3-Benzyl-5-phenyl-3H-imidazo[4,5-c][1,8]naphthyridin-4(5H)-one]
inhibition in vivo at 100 mg/kg [1]: 58.1%
inhibition in vivo at 100 mg/kg [2]: 65.1%
IC50 [4]: 1.3 µM
responders at 100 mg/kg [5]: 90%
MLD (Minimum Lethal Dose) i.p. (ddY strain male mice): > 100 mg/kg
MLD (Minimum Lethal Dose) p.o. (ddY strain male mice): > 300 mg/kg

CC(=O)Cn1cnc2c3cccnc3n(-c3ccccc3)c(=O)c21 [Compound 14, 3-(2-Oxopropyl)-5-phenyl-3H-imidazo[4,5-c][1,8]naphthyridin-4(5H)-one]
inhibition in vivo at 100 mg/kg [1]: 44%
inhibition in vivo at 25 mg/kg [2]: 53.7%
IC50 [4]: 5.8 µM
responders at 100 mg/kg [5]: 100%
MLD (Minimum Lethal Dose) i.p. (ddY strain male mice): > 100 mg/kg
MLD (Minimum Lethal Dose) p.o. (ddY strain male mice): > 100 mg/kg

O=c1c2c(ncn2CCc2ccccc2)c2cccnc2n1-c1ccccc1 [Compound 15, 3-Phenethyl-5-phenyl-3H-imidazo[4,5-c][1,8]naphthyridin-4(5H)-one]
inhibition in vivo at 100 mg/kg [1]: 5.2%
inhibition in vivo at 25 mg/kg [2]: 25.7%
IC50 [4]: 8.1 µM
responders at 100 mg/kg [5]: 50%
MLD (Minimum Lethal Dose) i.p. (ddY strain male mice): > 100 mg/kg
MLD (Minimum Lethal Dose) p.o. (ddY strain male mice): > 300 mg/kg

CCCCn1c(=O)c2c(ncn2CCC)c2cccnc21 [Compound 29, 5-n-Butyl-3-n-propyl-3H-imidazo[4,5-c][1,8]naphthyridin-4(5H)-one]
inhibition in vivo at 100 mg/kg [1]: 56.1%
inhibition in vivo at 25 mg/kg [2]: 21.1%
IC50 [4]: 0.29 µM
responders at 100 mg/kg [5]: 100%
MLD (Minimum Lethal Dose) i.p. (ddY strain male mice): > 100 mg/kg
MLD (Minimum Lethal Dose) p.o. (ddY strain male mice): > 100 mg/kg

CCOCCn1cnc2c3cccnc3n(-c3ccccc3)c(=O)c21 [Compound 31, 3-(Ethoxyethyl)-5-phenyl-3H-imidazo[4,5-c][1,8]naphthyridin-4(5H)-one]
inhibition in vivo at 100 mg/kg [1]: 60.6%
inhibition in vivo at 25 mg/kg [2]: 57.4%
IC50 [4]: 0.13 µM
responders at 100 mg/kg [5]: 90%
MLD (Minimum Lethal Dose) i.p. (ddY strain male mice): > 100 mg/kg
MLD (Minimum Lethal Dose) p.o. (ddY strain male mice): > 300 mg/kg

C=CCn1cnc2c3cccnc3n(-c3ccccc3)c(=O)c21 [Compound 33, 3-(2-propenyl)-5-phenyl-3H-imidazo[4,5-c][1,8]naphthyridin-4(5H)-one]
inhibition in vivo at 50 mg/kg [1]: 67.8%
inhibition in vivo at 25 mg/kg [2]: 67.3%
IC50 [4]: 0.0071 µM
responders at 100 mg/kg [5]: 100%
MLD (Minimum Lethal Dose) i.p. (ddY strain male mice): > 100 mg/kg
MLD (Minimum Lethal Dose) p.o. (ddY strain male mice): > 300 mg/kg

CC(=O)OCCn1cnc2c3cccnc3n(-c3ccccc3)c(=O)c21 [Compound 34, 3-(2-Acetoxyethyl)-5-phenyl-3H-imidazo[4,5-c][1,8]naphthyridin-4(5H)-one]
inhibition in vivo at 50 mg/kg [1]: 42.2%
inhibition in vivo at 25 mg/kg [2]: 41.6%
IC50 [4]: 0.68 µM
responders at 100 mg/kg [5]: 70%
MLD (Minimum Lethal Dose) i.p. (ddY strain male mice): > 100 mg/kg
MLD (Minimum Lethal Dose) p.o. (ddY strain male mice): > 300 mg/kg

O=c1c2c(ncn2Cc2ccc(F)cc2)c2cccnc2n1-c1ccccc1 [Compound 44, 3-(4-Fluorophenyl)methyl-5-phenyl-3H-imidazo[4,5-c][1,8]naphthyridin-4(5H)-one]
inhibition in vivo at 100 mg/kg [1]: 42.8%
inhibition in vivo at 25 mg/kg [2]: 63.9%
IC50 [4]: 6.6 µM
responders at 100 mg/kg [5]: 50%
MLD (Minimum Lethal Dose) i.p. (ddY strain male mice): > 50 mg/kg
MLD (Minimum Lethal Dose) p.o. (ddY strain male mice): > 300 mg/kg
